Laboratory results reported in patent US5461054A, “Anthracene-spiro-pyrrolindines” (Bayer Aktiengesellschaft, priority 1993, dated 1995).

Tested on: monocyte-free human T cells
Test: Inhibition of 5-HT-dependent T Cell Proliferation
Format: cell-based
Settings: PWM (1:200) and 5-HT (100 μm), 7 days, 3H-thymidine incorporation, 33 μM-0.1 μM
Excerpt: The in vitro activity of the compounds according to the invention results from their capability to inhibit T cell proliferation, which is previously stimulated by serotonin.
Inhibition of 5-HT-dependent T Cell Proliferation
Peripheral mononuclear blood cells (PBMC) are obtained from the buffy coat of the blood of healthy subjects. After isolation by means of isolymph gradients (Pharmacia), the PBMC are washed twice and used directly. Purified T cells are obtained by E rosette formation with sheep erythrocytes [cf. Blue, M. L., J. F. Daley, H. Levine, K. A. Craig and S. F. Schlossmann, 1986, Biosynthesis and surface expression of T8 by peripheral blood T4+ cells in vitro, J. Immunol. 137, 1202]. Monocytes are partially removed by adhesion to tissue culture plates or flasks. […] The cultures are treated with 1 μCi of ^3 H-thymidine for 6 h on the 7th day and collected on filter paper, and the incorporated radioactivity is determined by means of liquid scintillation counting.
The test substances are dissolved in 10 mM HCl in order to achieve a final concentration of 1 mM in each case. […] The inhibitory activity of the test substances is expressed as the IC50 in μM. […]

SMILES	IC50 [µM]
O=C1CC2(CC3c4ccccc4C2c2ccccc23)C(=O)N1CCCN1CCN(c2ccc(F)cc2)CC1 (centres unmarked) [Example 1, 1'-{3-[4-(4-Fluorophenyl)-piperazin-1-yl]-propyl}-9,10-dihydro-9,10-ethano-anthracene-11-spiro-3'-pyrrolidine-2',5'-dione]	2
O=C1CC2(CC3c4ccccc4C2c2ccccc23)C(=O)N1CCCN1CCN(c2ccccc2)CC1 (centres unmarked) [Example 2]	5
